Where two headings read alike, the source gives them in different places.

In patent US20110224210A1, “NOVEL BIS-AMIDES AS ANTI-MALARIAL AGENTS” (priority 2008, published 2011) one finds IC50 data, which are given here for 22 molecules.

The subject of this experiment is P. falciparum K1 (strain resistant to chloroquine and pyrimethamine), erythrocytic stages. Description: Plasmodium falciparum in vitro assay, [3H] hypoxanthine incorporation. The format is cell-based. The settings on record: [3H] hypoxanthine incorporation, read-out: IC50 (nM) on K1. The gist of the method: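 Chloroquine/pyrimethamine-resistant K1 erythrocytic cultures (2.5% haematocrit, 0.3% parasitaemia, hypoxanthine-free RPMI with Albumax) exposed to seven doubling dilutions at 37 °C under low O2.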

Where [1] appears, read: Plasmodium falciparum, K1, P. falciparum strain K1.

By IC50 is commonly meant the concentration at which inhibition is half-maximal. `CN(CCOCc1ccccc1)C(=O)[C@H](Cc1ccccc1)N(Cc1ccc(N2CCOCC2)cc1)C(=O)C=Cc1ccc(C(F)(F)F)cc1` [Example 182, (S)-N-{1-[(2-Benzyloxy-ethyl)-methyl-carbamoyl]-2-phenyl-ethyl}-N-(4-morpholin-4-yl-benzyl)-3-(4-trifluoromethyl-phenyl)-acrylamide]: the IC50 under setting [1] stood at 18 nM.

With `CC(=O)N1CCN(c2ccc(CN(C(=O)C=Cc3ccc(C(F)(F)F)cc3)[C@@H](Cc3ccccc3)C(=O)N(C)CCOCc3ccc(C)cc3C)cc2)CC1` [Example 183, (S)-N-[4-(4-Acetyl-piperazin-1-yl)-benzyl]-N-(1-{[2-(2,4-dimethyl-benzyloxy)-ethyl]-methyl-carbamoyl}-2-phenyl-ethyl)-3-(4-trifluoromethyl-phenyl)-acrylamide, formic acid], under setting [1], the IC50 was 60 nM.

With `COc1ccc(COCCN(C)C(=O)[C@H](Cc2ccccc2)N(Cc2ccc(N3CCN(C(C)=O)CC3)cc2)C(=O)C=Cc2ccc(C(F)(F)F)cc2)cc1F` [Example 184, (S)-N-[4-(4-Acetyl-piperazin-1-yl)-benzyl]-N-(1-{[2-(3-fluoro-4-methoxy-benzyloxy)-ethyl]-methyl-carbamoyl}-2-phenyl-ethyl)-3-(4-trifluoromethyl-phenyl)-acrylamide, formic acid], the half-inhibitory concentration (IC50) under setting [1] was found to be 13 nM.

Turning to `CC(=O)N1CCN(c2ccc(CN(C(=O)C=Cc3ccc(C(F)(F)F)cc3)[C@@H](Cc3ccccc3)C(=O)N(C)CCOCc3cccc(C#N)c3)cc2)CC1` [Example 185, (S)-N-[4-(4-Acetyl-piperazin-1-yl)-benzyl]-N-(1-{[2-(3-cyano-benzyloxy)-ethyl]-methyl-carbamoyl}-2-phenyl-ethyl)-3-(4-trifluoromethyl-phenyl)-acrylamide, formic acid], under setting [1], the IC50 was determined as 19 nM.

For `CC(=O)N1CCN(c2ccc(CN(C(=O)C=Cc3ccc(C(F)(F)F)cc3)[C@@H](Cc3ccccc3)C(=O)N(C)CCOCc3cccc(OC(F)(F)F)c3)cc2)CC1` [Example 186, (S)-N-[4-(4-Acetyl-piperazin-1-yl)-benzyl]-N-(1-{methyl-[2-(3-trifluoromethoxy-benzyloxy)-ethyl]-carbamoyl}-2-phenyl-ethyl)-3-(4-trifluoromethyl-phenyl)-acrylamide, formic acid], the IC50 under setting [1] stood at 58 nM.

With `COc1cccc(COCCN(C)C(=O)[C@H](Cc2ccccc2)N(Cc2ccc(N3CCN(C(C)=O)CC3)cc2)C(=O)C=Cc2ccc(C(F)(F)F)cc2)c1` [Example 187, (S)-N-[4-(4-Acetyl-piperazin-1-yl)-benzyl]-N-(1-{[2-(3-methoxy-benzyloxy)-ethyl]-methyl-carbamoyl}-2-phenyl-ethyl)-3-(4-trifluoromethyl-phenyl)-acrylamide, formic acid], the IC50 under setting [1] was 7 nM.

`CC(=O)N1CCN(c2ccc(CN(C(=O)C=Cc3ccc(C(F)(F)F)cc3)[C@@H](Cc3ccccc3)C(=O)N(C)CCOCc3ccc(OC(F)F)cc3)cc2)CC1` [Example 188, (S)-N-[4-(4-Acetyl-piperazin-1-yl)-benzyl]-N-(1-{[2-(4-difluoromethoxy-benzyloxy)-ethyl]-methyl-carbamoyl}-2-phenyl-ethyl)-3-(4-trifluoromethyl-phenyl)-acrylamide, formic acid]: under setting [1], the IC50 came out at 53 nM.

Consider `CC(=O)N1CCN(c2ccc(CN(C(=O)C=Cc3ccc(C(F)(F)F)cc3)[C@@H](Cc3ccccc3)C(=O)N(C)CCOCc3ccc4c(c3)nnn4C)cc2)CC1` [Example 189, (S)-N-[4-(4-Acetyl-piperazin-1-yl)-benzyl]-N-(1-{methyl-[2-(1-methyl-1H-benzotriazol-5-ylmethoxy)-ethyl]-carbamoyl}-2-phenyl-ethyl)-3-(4-trifluoromethyl-phenyl)-acrylamide, formic acid], for which the IC50 under setting [1] was 9 nM.

Turning to `CC(=O)N1CCN(c2ccc(CN(C(=O)C=Cc3ccc(C(F)(F)F)cc3)[C@@H](Cc3ccccc3)C(=O)N(C)CCOCc3cccnc3)cc2)CC1` [Example 190, (S)-N-[4-(4-Acetyl-piperazin-1-yl)-benzyl]-N-(1-{methyl-[2-(pyridin-3-ylmethoxy)-ethyl]-carbamoyl}-2-phenyl-ethyl)-3-(4-trifluoromethyl-phenyl)-acrylamide, formic acid], the IC50 under setting [1] came out at 7 nM.

`COc1cccc(COCCN(C)C(=O)[C@H](Cc2ccccc2)N(Cc2ccc(N3CCOCC3)cc2)C(=O)C=Cc2ccc(C(F)(F)F)cc2)c1` [Example 191, (S)-N-(1-{[2-(3-Methoxy-benzyloxy)-ethyl]-methyl-carbamoyl}-2-phenyl-ethyl)-N-(4-morpholin-4-yl-benzyl)-3-(4-trifluoromethyl-phenyl)-acrylamide, formic acid]: the IC50 under setting [1] was found to be 11 nM.

In the case of `CCOCCN(C)C(=O)[C@H](Cc1ccccc1)N(Cc1ccc(N2CCOCC2)cc1)C(=O)C=Cc1ccc(C(F)(F)F)cc1` [Example 192, (S)-N-{1-[(2-Ethoxy-ethyl)-methyl-carbamoyl]-2-phenyl-ethyl}-N-(4-morpholin-4-yl-benzyl)-3-(4-trifluoromethyl-phenyl)-acrylamide], the IC50 under setting [1] was determined as 19 nM.

`CCOCCN(C)C(=O)[C@H](Cc1ccccc1)N(Cc1ccc(N2CCN(C(C)=O)CC2)cc1)C(=O)C=Cc1ccc(C(F)(F)F)cc1` [Example 193, (S)-N-[4-(4-Acetyl-piperazin-1-yl)-benzyl]-N-{1-[(2-ethoxy-ethyl)-methyl-carbamoyl]-2-phenyl-ethyl}-3-(4-trifluoromethyl-phenyl)-acrylamide]: the IC50 under setting [1] was 20 nM.

On to `CC(=O)N1CCN(c2ccc(CN(C(=O)C=Cc3ccc(C(F)(F)F)cc3)[C@@H](Cc3ccccc3)C(=O)N(C)CCOCc3ccc(C)cc3C)cc2)CC1` [Example 194, (S)-N-[4-(4-Acetyl-piperazin-1-yl)-benzyl]-N-(1-{[2-(2,4-dimethyl-benzyloxy)-ethyl]-methyl-carbamoyl}-2-phenyl-ethyl)-3-(4-trifluoromethyl-phenyl)-acrylamide], for which the IC50 (P. falciparum strain K1) is 89 nM.

Take `Cc1ccc(COCCN(C)C(=O)[C@H](Cc2ccccc2)N(Cc2ccc(N3CCOCC3)cc2)C(=O)C=Cc2ccc(C(F)(F)F)cc2)c(C)c1` [Example 195, (S)-N-(1-{[2-(2,4-Dimethyl-benzyloxy)-ethyl]-methyl-carbamoyl}-2-phenyl-ethyl)-N-(4-morpholin-4-yl-benzyl)-3-(4-trifluoromethyl-phenyl)-acrylamide]: the IC50 under setting [1] was found to be 81 nM.

Regarding `COc1ccc(COCCN(C)C(=O)[C@H](Cc2ccccc2)N(Cc2ccc(N3CCOCC3)cc2)C(=O)C=Cc2ccc(C(F)(F)F)cc2)cc1F` [Example 196, (S)-N-(1-{[2-(3-Fluoro-4-methoxy-benzyloxy)-ethyl]-methyl-carbamoyl}-2-phenyl-ethyl)-N-(4-morpholin-4-yl-benzyl)-3-(4-trifluoromethyl-phenyl)-acrylamide], the IC50 under setting [1] came to 16 nM.

As for `CN(CCOCc1cccc(C#N)c1)C(=O)[C@H](Cc1ccccc1)N(Cc1ccc(N2CCOCC2)cc1)C(=O)C=Cc1ccc(C(F)(F)F)cc1` [Example 197, (S)-N-(1-{[2-(3-Cyano-benzyloxy)-ethyl]-methyl-carbamoyl}-2-phenyl-ethyl)-N-(4-morpholin-4-yl-benzyl)-3-(4-trifluoromethyl-phenyl)-acrylamide], the IC50 under setting [1] was determined as 29 nM.

With `CN(CCOCc1cccc(OC(F)(F)F)c1)C(=O)[C@H](Cc1ccccc1)N(Cc1ccc(N2CCOCC2)cc1)C(=O)C=Cc1ccc(C(F)(F)F)cc1` [Example 198, (S)-N-(1-{Methyl-[2-(3-trifluoromethoxy-benzyloxy)-ethyl]-carbamoyl}-2-phenyl-ethyl)-N-(4-morpholin-4-yl-benzyl)-3-(4-trifluoromethyl-phenyl)-acrylamide], under setting [1], the IC50 worked out at 65 nM.

With `COc1cc(COCCN(C)C(=O)[C@H](Cc2ccccc2)N(Cc2ccc(N3CCOCC3)cc2)C(=O)C=Cc2ccc(C(F)(F)F)cc2)cc(OC)c1` [Example 199, (S)-N-(1-{[2-(3,5-Dimethoxy-benzyloxy)-ethyl]-methyl-carbamoyl}-2-phenyl-ethyl)-N-(4-morpholin-4-yl-benzyl)-3-(4-trifluoromethyl-phenyl)-acrylamide], under setting [1], the IC50 was 34 nM.

`CN(CCOCc1ccc(OC(F)F)cc1)C(=O)[C@H](Cc1ccccc1)N(Cc1ccc(N2CCOCC2)cc1)C(=O)C=Cc1ccc(C(F)(F)F)cc1` [Example 201, (S)-N-(1-{[2-(4-Difluoromethoxy-benzyloxy)-ethyl]-methyl-carbamoyl}-2-phenyl-ethyl)-N-(4-morpholin-4-yl-benzyl)-3-(4-trifluoromethyl-phenyl)-acrylamide]: the half-inhibitory concentration (IC50) under setting [1] came out at 32 nM.

With `CN(CCOCc1ccc2c(c1)nnn2C)C(=O)[C@H](Cc1ccccc1)N(Cc1ccc(N2CCOCC2)cc1)C(=O)C=Cc1ccc(C(F)(F)F)cc1` [Example 202, (S)-N-(1-{Methyl-[2-(1-methyl-1H-benzotriazol-5-ylmethoxy)-ethyl]-carbamoyl}-2-phenyl-ethyl)-N-(4-morpholin-4-yl-benzyl)-3-(4-trifluoromethyl-phenyl)-acrylamide], under setting [1], the IC50 amounted to 14 nM.

In the case of `CN(CCOCc1cccnc1)C(=O)[C@H](Cc1ccccc1)N(Cc1ccc(N2CCOCC2)cc1)C(=O)C=Cc1ccc(C(F)(F)F)cc1` [Example 203, (S)-N-(1-{Methyl-[2-(pyridin-3-ylmethoxy)-ethyl]-carbamoyl}-2-phenyl-ethyl)-N-(4-morpholin-4-yl-benzyl)-3-(4-trifluoromethyl-phenyl)-acrylamide], the IC50 under setting [1] was determined as 12 nM.

As for `CC(=O)N1CCN(c2ccc(CN(C(=O)C=Cc3ccc(C(F)(F)F)cc3)[C@@H](Cc3ccccc3)C(=O)N(C)CCOCc3cc(C)on3)cc2)CC1` [Example 204, (S)-N-[4-(4-Acetyl-piperazin-1-yl)-benzyl]-N-(1-{methyl-[2-(5-methyl-isoxazol-3-ylmethoxy)-ethyl]-carbamoyl}-2-phenyl-ethyl)-3-(4-trifluoromethyl-phenyl)-acrylamide], the IC50 under setting [1] came to 9 nM.
